Values of other authors, collected in patent US20090155392A1, “Methods and Systems for Sublingual Guarana Administration” (priority 2007, published 2009).

What was measured:
[1] = in vivo
[2] = versus other lithium salts (lithium carbonate, lithium citrate)

COc1cc(CNC(=O)CCCC/C=C/C(C)C)ccc1O [capsaicin, Capsaicin]
mean metabolic rate (30 minutes and 60 minutes after taking the extract): significant increase
subjects with reduced body fat (two week period): 70%

CS(C)(=O)=O [MSM, Methylsulfonylmethane]
homocysteine levels in blood [1]: statistically significant lower levels
joint pain and stiffness [1]: significantly beneficial effect on joint pain and stiffness

O=C([O-])c1cc(=O)[nH]c(=O)[nH]1.[Li+] [lithium orotate, Lithium orotate]
bio-activity relative to other lithium salts [2]: 20 times
